Data published in patent US8063088B2 (Hoffmann-La Roche Inc., priority 2008, dated 2011).

Experiments:
human LXR alpha = target: T1, human LXR alpha (Homo sapiens, UniProt Q13133); assay: Radioligand binding assay (SPA), LXR alpha LBD; conditions: radioligand displacement, LXRα-LBD on SPA beads; read-out: LXRalpha Binding IC50
T1 construct: human LXR alpha (aa 164 to 447); unspecified tag ('tagged versions'); made in house; host or cells: E. coli BL21 (pLysS)
T1 sequence (Q13133 164-447): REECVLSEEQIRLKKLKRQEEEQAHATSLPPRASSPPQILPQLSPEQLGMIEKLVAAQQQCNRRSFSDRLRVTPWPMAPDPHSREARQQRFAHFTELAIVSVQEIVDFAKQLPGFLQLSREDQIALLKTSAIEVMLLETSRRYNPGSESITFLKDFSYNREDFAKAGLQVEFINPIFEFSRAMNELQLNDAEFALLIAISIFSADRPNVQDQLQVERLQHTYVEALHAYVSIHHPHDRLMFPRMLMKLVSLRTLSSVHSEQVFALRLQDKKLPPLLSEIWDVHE
Description: (§1) The following tests were carried out in order to determine the activity of the compounds of the present invention. Background information on the performed assays can be found in: Nichols J S et al. “Development of a scintillation proximity assay for peroxisome proliferator-activated receptor gamma ligand binding domain”, Anal Biochem. 1998, 257: 112-119.
(§2) Mammalian expression vectors were constructed to express full-length human LXR alpha and LXR beta. Bacterial expression vectors were constructed to produce tagged versions of the ligand binding domains (LBD) of human LXR alpha (aa 164 to 447) and human LXR beta (aa 155 to 460). To accomplish this, the portions of the sequences encoding the LBDs were amplified from the full-length clones by PCR and then subcloned into the plasmid vectors. Final clones were verified by DNA sequence analysis (Willy et al., Genes Dev. 1995, 9:1033-45; Song et al., Proc Natl Acad Sci USA. 1994, 91:10809-13).
(§3) Induction, expression, and purification of LBD proteins were performed in E. coli strain BL21 (pLysS) cells by standard methods (Ref: Current Protocols in Molecular Biology, Wiley Press, edited by Ausubel et al).
(§4) Radioligand Binding Assay
(§5) LXR alpha and LXR beta receptor binding were assayed in buffer consisting of 50 mM HEPES, pH 7.4, 10 mM NaCl, 5 mM MgCl2. For each 96-well reaction, 500 ng of LXRα-LBD or 700 ng of LXR beta-LBD proteins were bound to 80 μg or 40 μg SPA beads respectively, in a final volume of 50 μl by shaking. The resulting slurry was incubated for 1 h at RT and centrifuged for 2 min at 1300×g. The supernatant containing unbound protein was removed, and the semi-dry pellet containing the receptor-coated beads was re-suspended in 50 μl of buffer. Radioligand (eg. 100,000 dpm of (N-(2,2,2-trifluoroethyl)-N-[4-(2,2,2-trifluoro-1-hydroxy-1-trifluoromethylethyl)-phenyl]-benzenesulfonamide)) was added, and the reaction incubated at RT for 1 h in the presence of test compounds, and then scintillation proximity counting was performed. All binding assays were performed in 96-well plates and the amount of bound ligand was measured on a Packard TopCount using OptiPlates (Packard). Dose response curves were measured within a range of concentration from 10^−10 M to 10^−4 M.

human LXR beta = target: T2, human LXR beta (Homo sapiens, UniProt P55055); assay: Radioligand binding assay (SPA), LXR beta LBD; conditions: radioligand displacement, LXR beta-LBD on SPA beads; read-out: LXRbeta Binding IC50
T2 construct: human LXR beta (aa 155 to 460); unspecified tag ('tagged versions'); made in house; host or cells: E. coli BL21 (pLysS)
T2 sequence (P55055 155-460): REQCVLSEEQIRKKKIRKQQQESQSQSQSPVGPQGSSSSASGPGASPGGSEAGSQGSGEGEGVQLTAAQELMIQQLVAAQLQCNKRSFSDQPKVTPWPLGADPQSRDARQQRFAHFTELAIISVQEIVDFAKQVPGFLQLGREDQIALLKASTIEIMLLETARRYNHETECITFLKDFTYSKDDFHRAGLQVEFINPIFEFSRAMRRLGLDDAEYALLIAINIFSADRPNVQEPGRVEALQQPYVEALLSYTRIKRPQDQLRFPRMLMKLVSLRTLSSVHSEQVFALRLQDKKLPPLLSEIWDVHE
Description: as §1, §2, §3, §4, §5

Row | IC50 (human LXR alpha) [µM] | IC50 (human LXR beta) [µM] | SMILES
1 | 0.07 | 0.025 | CS(=O)(=O)c1cccc(-c2cccc([C@@H]3CN(S(=O)(=O)c4ccccc4)CC[C@H]3c3ccccc3)c2)c1 (racemic) [Example 36, trans-1-Benzenesulfonyl-3-(3′-methanesulfonyl-biphenyl-3-yl)-4-phenyl-piperidine]
2 | 0.16 | 0.025 | CC(C)(C)OC(=O)N1CC[C@@H](c2ccccc2)[C@H](c2cccc(-c3cccc(S(C)(=O)=O)c3)c2)C1 (relative stereo) [Example 38, trans-3-(3′-Methanesulfonyl-biphenyl-3-yl)-4-phenyl-piperidine-1-carboxylic acid tert-butyl ester]
3 | 3.03 | 2.75 | CS(=O)(=O)c1cccc(-c2cccc([C@@H]3CN(S(=O)(=O)c4ccccc4)CC[C@@H]3c3ccccc3)c2)c1 (relative stereo) [Example 39, cis-1-Benzenesulfonyl-3-(3′-methanesulfonyl-biphenyl-3-yl)-4-phenyl-piperidine]
4 | 27.4 | 36.8 | Cc1ccc(C)c(-c2cccc([C@@H]3CN(C(=O)OC(C)(C)C)CC[C@@H]3c3ccccc3)c2)c1 (relative stereo) [Example 41, cis-3-(2′,5′-Dimethyl-biphenyl-3-yl)-4-phenyl-piperidine-1-carboxylic acid tert-butyl ester]
5 | 2.83 | 0.61 | CC(C)(C)OC(=O)N1CC[C@H](c2ccccc2)[C@H](c2cccc(-c3cccc(S(C)(=O)=O)c3)c2)C1 (relative stereo) [Example 42, cis-3-(3′-Methanesulfonyl-biphenyl-3-yl)-4-phenyl-piperidine-1-carboxylic acid tert-butyl ester]
6 | 3.98 | 0.755 | CC(C)(C)OC(=O)N1CC[C@@H](c2ccccc2)[C@H](c2cccc(-c3cncc(S(C)(=O)=O)c3)c2)C1 (relative stereo) [Example 43, trans-3-[3-(5-Methanesulfonyl-pyridin-3-yl)-phenyl]-4-phenyl-piperidine-1-carboxylic acid tert-butyl ester]
7 | 53.7 | 5.51 | Cc1cccc(-c2cccc([C@@H]3CN(C(=O)OC(C)(C)C)CC[C@H]3c3ccccc3)c2)c1 (relative stereo) [Example 44, trans-3-(3′-Methyl-biphenyl-3-yl)-4-phenyl-piperidine-1-carboxylic acid tert-butyl ester]
8 | 0.24 | 0.021 | CC(C)(C)OC(=O)N1C[C@H](c2cccc(-c3cccc(S(C)(=O)=O)c3)c2)[C@H](c2ccccc2)CC1=O (relative stereo) [Example 45, Cis-5-(3′-Methanesulfonyl-biphenyl-3-yl)-2-oxo-4-phenyl-piperidine-1-carboxylic acid tert-butyl ester]
9 | 8.21 | 0.385 | CC(C)(C)OC(=O)N1C[C@H](c2cccc(-c3cncc(S(C)(=O)=O)c3)c2)[C@H](c2ccccc2)CC1=O (relative stereo) [Example 46, cis-5-[3-(5-Methanesulfonyl-pyridin-3-yl)-phenyl]-2-oxo-4-phenyl-piperidine-1-carboxylic acid tert-butyl ester]
10 | 0.185 | 0.22 | Cc1ccc(C)c(-c2cccc([C@H]3CN(C(=O)OC(C)(C)C)C(=O)C[C@H]3c3ccccc3)c2)c1 (relative stereo) [Example 47, Cis-5-(2′,5′-Dimethyl-biphenyl-3-yl)-2-oxo-4-phenyl-piperidine-1-carboxylic acid tert-butyl ester]
11 | 11.6 | 2.88 | O=C(O)c1ccc(-c2ccc(C3CN(S(=O)(=O)c4ccccc4)C(=O)N3c3ccccc3)cc2)cc1 (stereo not shown) [Example 1, 4′-(1-Benzenesulfonyl-2-oxo-3-phenyl-imidazolidin-4-yl)-biphenyl-4-carboxylic acid]
12 | 7.97 | 8.05 | O=C(O)c1cccc(-c2ccc(C3CN(S(=O)(=O)c4ccccc4)C(=O)N3c3ccccc3)cc2)c1 (stereo not shown) [Example 2, 4′-(1-Benzenesulfonyl-2-oxo-3-phenyl-imidazolidin-4-yl)-biphenyl-3-carboxylic acid]
13 | 10.2 | 5.25 | Cc1ccc(C)c(-c2ccc(C3CN(S(=O)(=O)c4ccccc4)C(=O)N3c3ccccc3)cc2)c1 (stereo not shown) [Example 3, 1-Benzenesulfonyl-4-(2′,5′-dimethyl-biphenyl-4-yl)-3-phenyl-imidazolidin-2-one]
14 | 1.68 | 0.28 | CS(=O)(=O)c1cccc(-c2ccc(C3CN(S(=O)(=O)c4ccccc4)C(=O)N3c3ccccc3)cc2)c1 (stereo not shown) [Example 4, 1-Benzenesulfonyl-4-(3′-methanesulfonyl-biphenyl-4-yl)-3-phenyl-imidazolidin-2-one]
15 | 4.14 | 5.42 | O=C(O)c1ccc(-c2cccc(C3CN(S(=O)(=O)c4ccccc4)C(=O)N3c3ccccc3)c2)cc1 (stereo not shown) [Example 5, 3′-(1-Benzenesulfonyl-2-oxo-3-phenyl-imidazolidin-4-yl)-biphenyl-4-carboxylic acid]
16 | 5.72 | 9.03 | O=C(O)c1cccc(-c2cccc(C3CN(S(=O)(=O)c4ccccc4)C(=O)N3c3ccccc3)c2)c1 (stereo not shown) [Example 6, 3′-(1-Benzenesulfonyl-2-oxo-3-phenyl-imidazolidin-4-yl)-biphenyl-3-carboxylic acid]
17 | 0.09 | 0.004 | CS(=O)(=O)c1cccc(-c2cccc(C3CN(S(=O)(=O)c4ccccc4)C(=O)N3c3ccccc3)c2)c1 (stereo not shown) [Example 7, 1-Benzenesulfonyl-4-(3′-methanesulfonyl-biphenyl-3-yl)-3-phenyl-imidazolidin-2-one]
18 | 0.335 | 0.0745 | CS(=O)(=O)Nc1cccc(-c2cccc(C3CN(S(=O)(=O)c4ccccc4)C(=O)N3c3ccccc3)c2)c1 (stereo not shown) [Example 8, N-[3′-(1-Benzenesulfonyl-2-oxo-3-phenyl-imidazolidin-4-yl)-biphenyl-3-yl]-methanesulfonamide]
19 | 0.425 | 0.36 | CS(=O)(=O)Nc1cccc(-c2ccc(C3CN(S(=O)(=O)c4ccccc4)C(=O)N3c3ccccc3)cc2)c1 (stereo not shown) [Example 9, N-[4′-(1-Benzenesulfonyl-2-oxo-3-phenyl-imidazolidin-4-yl)-biphenyl-3-yl]-methanesulfonamide]
20 | 3.35 | 2.69 | O=C(O)CCc1ccc(-c2cccc(C3CN(S(=O)(=O)c4ccccc4)C(=O)N3c3ccccc3)c2)cc1 (stereo not shown) [Example 10, 3-[3′-(1-Benzenesulfonyl-2-oxo-3-phenyl-imidazolidin-4-yl)-biphenyl-4-yl]-propionic acid]
21 | 13 | 46.1 | O=C(O)c1ccccc1-c1cccc(C2CN(S(=O)(=O)c3ccccc3)C(=O)N2c2ccccc2)c1 (stereo not shown) [Example 11, 3′-(1-Benzenesulfonyl-2-oxo-3-phenyl-imidazolidin-4-yl)-biphenyl-2-carboxylic acid]
22 | 0.147 | 0.0243 | CC(C)N1C(=O)N(S(=O)(=O)c2ccccc2)CC1c1cccc(-c2cccc(S(C)(=O)=O)c2)c1 (stereo not shown) [Example 12, 1-Benzenesulfonyl-3-isopropyl-4-(3′-methanesulfonyl-biphenyl-3-yl)-imidazolidin-2-one]

Row | SMILES | IC50 (human LXR alpha) [µM] | IC50 (human LXR beta) [µM]
23 | NCc1cccc(-c2cccc([C@@H]3CN(S(=O)(=O)c4ccccc4)CC[C@H]3c3ccccc3)c2)c1 (relative stereo) [Example 37] | 2.54 | 2.09
